We go through 90 compounds from PubChem BioAssay AID463204 (Broad Institute, 2010).

The structures appear in SMILES notation. The source made the active and inactive calls.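 Rule for the calls: active = AC50 no more than ten times the top concentration tested, that is within one log above it; inconclusive = flat curve fit with activity between 30% and 70%, or invalid poor fit; inactive = AC50 beyond ten times the top tested dose.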

This experiment relates to S. cerevisiae Mot1-301 ts growth rescue, BacTiter-Glo ATP luminescence. Nature of the experiment: growth rescue of Mot1-301 ts yeast, confirmation, SUMOylation pathway inhibitor project, whole organism, S. cerevisiae, Mot1-301 ts mutant, luminescence, dose retest (AID 463204).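 Note: growth at restrictive 38.5 degrees C of Mot1-301 OY566 strain; actives raise luminescence by restoring growth of the ts mutant at high temperature.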
Turning to `COc1cccc(OC)c1OCC(O)CN1CCN(c2ccccc2)CC1` (stereo not given), the AC50 is > 42 µM (inactive). Regarding `N/C(=N\N=C\c1ccc(O)cc1)c1nonc1N`, the AC50 is > 42 µM (inactive).

With `COc1cc2cc(C)c3nnc(SCC(=O)Nc4cc(C)on4)n3c2cc1OC`, the AC50 is > 42 µM (inactive). Then `CN1C(=O)c2cccc3c(Cl)ccc(c23)C1=O`, with > 42 µM (inactive); and `CCC(C)(C)n1nnnc1C(c1ccc(OC)c(OC)c1)N1CCN(c2cccc(OC)c2)CC1` (stereo not given), with > 42 µM (inactive). Consider `O=S1(=O)CC(N2CCCCC2)C(N2CCCCC2)C1` (stereo not given), for which the AC50 is > 42 µM (inactive). In the case of `Cc1ccc(O)c(C)c1`, the AC50 was > 42 µM (inactive). Regarding `Cc1cnc(NC(=O)CSc2nc3ccccc3s2)s1`, the AC50 is > 42 µM (inactive).

Regarding `CNC(=O)NNC(=O)c1csc(-c2ccc(C(F)(F)F)cc2Cl)n1`, the AC50 is > 42 µM (inactive). Consider `Cc1cc(C)c(NC(=O)Cn2c([N+](=O)[O-])cnc2C)c(C)c1`, for which the AC50 was > 42 µM (inactive). Take `CSc1cccc(N2C(=O)C3CCCN3C2=S)c1` (stereo not given): the AC50 was > 42 µM (inactive). For the compound `S=c1[nH]ccn1-c1cccc(Cl)c1`, the AC50 was > 42 µM (inactive). The same measure for `COc1ccc(-c2cn(-c3ccc(C)cc3)c(=O)n2CC(=O)Nc2ccc(OC)c(OC)c2)cc1`: > 42 µM (inactive); for `O=C(O)/C=C\C(=O)NC1CCCCC1`: > 42 µM (inactive).

With `CC(C)(C)c1cc(NCCCn2ccnc2)n2ncc(-c3ccc(Cl)cc3)c2n1`, the AC50 was 5.57 µM. Then `CCOC(=O)c1ccc(NC(=S)NCCCN2CCOCC2)cc1`, with > 110 µM (inactive). As to `CC(C)Cc1cc(CN2CCC(CO)(Cc3ccccc3)CC2)[nH]n1`, the AC50 is > 42 µM (inactive). Regarding `Cc1ccc(N2C(=O)C3N=NN(CC(=O)N4N=C(c5cccc6ccccc56)CC4c4ccccc4)C3C2=O)cc1` (stereo not given), the AC50 was > 21 µM (inactive). With `Fc1cccc(NC(=S)N2CCn3cccc3C2c2cccnc2)c1` (stereo not given), the AC50 was > 42 µM (inactive). With `Cc1cccc(C(=O)NCC(=O)N2CCN(c3ccc(Cl)cc3)CC2)c1`, the AC50 was > 42 µM (inactive). The same measure for `O=C1C2CCCN2C(=S)N1C1CCCCC1` (stereo not given): > 42 µM (inactive); for `COc1ccc(OC)c(-c2cc(C(=O)Nc3c(C)nn(Cc4ccccc4Cl)c3C)no2)c1`: > 42 µM (inactive). As to `COc1ccc(-c2[nH]nc3c2C(c2ccncc2)C(C#N)=C(N)O3)cc1` (stereo not given), the AC50 is > 42 µM (inactive).

On to `COC(=O)c1cc(N=Nc2c(C)[nH]c3ccccc23)cc(C(=O)OC)c1`, for which the AC50 is > 42 µM (inactive).

For `O=C(Cc1cccs1)N1CCCC(c2nc3c(nnn3Cc3ccc(F)cc3)c(=O)[nH]2)C1` (stereo not given), the AC50 was > 42 µM (inactive). Take `CCN(CC)S(=O)(=O)c1ccc(N2CCCC2)c(C(=O)OCC(=O)Nc2cc(C)on2)c1`: the AC50 is > 42 µM (inactive).

`O=C1C2C(c3ccccc3)CC=CC2[C@H](c2ccc3ccccc3c2)N1Cc1ccccc1` (stereo not given in full): the AC50 was 11.3 µM. With `COc1ccc(C)cc1NC(=O)C12CCC(C)(C(=O)O1)C2(C)C` (stereo not given), the AC50 was > 42 µM (inactive). Consider `N#CC(CC(=O)c1ccc(F)cc1)c1ccc2c(c1)OCO2` (stereo not given), for which the half-maximal activity concentration (AC50) is 40.2 µM.

In the case of `CCNC(=O)/C(C#N)=C/c1c(N2CCCCCC2)nc2ccccn2c1=O`, the AC50 was > 42 µM (inactive). The same measure for `CC(C)CNc1cc(=O)n(C)c(=O)n1C`: > 42 µM (inactive); for `c1ccc2c(c1)OCCOCCOc1ccccc1OCCOCCO2`: > 42 µM (inactive). `Cc1cc(C(=O)NN)n[nH]1`: the AC50 is > 42 µM (inactive).

`CN(C)S(=O)(=O)N1CCc2ccccc2C1`: the AC50 was > 42 µM (inactive). Turning to `CCOC(=O)N1CCN(S(=O)(=O)c2ccc(Br)s2)CC1`, the AC50 was > 42 µM (inactive). Regarding `CCCNC(=O)CN(c1ccc(F)cc1)S(=O)(=O)c1ccc2c(c1)OCCO2`, the AC50 is > 42 µM (inactive). The same measure for `Cc1ccccc1NC(=O)c1ccccc1NC(=O)c1ccco1`: > 42 µM (inactive); for `O=S(=O)(Cc1ccccc1)NCc1ccccn1`: > 42 µM (inactive); for `CC(C)C(=O)Nc1ccc(-c2nc3cccnc3o2)cc1`: > 42 µM (inactive). With `Cc1cc(S(=O)(=O)N2CCCCC2CCNC(=O)C(=O)NCC2CCCO2)ccc1F` (stereo not given), the AC50 is > 42 µM (inactive). On to `COc1cc(C)ccc1OCCCOc1ccccc1Br`, for which the AC50 was > 42 µM (inactive). With `O=C(CCc1ccccc1)N1CCN(c2ccccc2F)CC1`, the AC50 is > 42 µM (inactive). With `Cc1cc(C)n(-c2nc3ccccc3nc2N2CCN(C(=O)c3ccccc3)CC2)n1`, the AC50 is > 42 µM (inactive).

Take `Cc1cnc(=O)[nH]c1SCC(=O)c1ccc(F)cc1`: the AC50 was > 42 µM (inactive).

For the compound `CCC(C)c1ccc(S(=O)(=O)N2CCN(C(=O)COc3ccc4c(C)cc(=O)oc4c3)CC2)cc1` (stereo not given), the AC50 is > 42 µM (inactive).

`COc1c(C)cc(S(=O)(=O)NC2CC(C)(C)NC(C)(C)C2)c(C)c1C`: the AC50 is > 42 µM (inactive).

For `COc1ccc2[nH]cc(C(=O)C(=O)N3CCCCC3)c2c1`, the AC50 is > 42 µM (inactive). Consider `Cc1ccc(C(=O)NNc2ncnc3c2cnn3C)cc1`, for which the AC50 is > 42 µM (inactive).

In the case of `Cn1c(=O)c2c(ncn2CC(=O)N2CCCCCC2)n(C)c1=O`, the AC50 is > 42 µM (inactive).

As to `COc1cccc2[nH]c(=O)c(-c3ccccc3)cc12`, the AC50 is > 42 µM (inactive). For `CC(C)C(=O)Nc1cccc(-c2nc3ncccc3o2)c1`, the AC50 is > 42 µM (inactive). In the case of `COc1c2ccoc2nc2c(OC)c(OC[C@@H](O)C(C)(C)O)ccc12`, the AC50 is > 42 µM (inactive). Turning to `O=C(C1CCN(S(=O)(=O)N2CCC3(CC2)OCCO3)CC1)N1CCC(Cc2ccccc2)CC1`, the AC50 was > 42 µM (inactive).

Take `CC1CN(CCCOc2ccc([N+](=O)[O-])cc2)CC(C)O1` (stereo not given): the AC50 is > 42 µM (inactive). Then `c1ccc2c(C[C@@H]3CNCCN3CCCCC3CCCCC3)cccc2c1`, with 15.6 µM. Then `CC1(C)NC(=O)N(CCCOc2ccccc2Br)C1=O`, with > 42 µM (inactive); and `Cc1ccccc1-c1nc2ccc(Cl)cc2c(=O)n1O`, with > 42 µM (inactive); and `COc1ccccc1CNc1ncnc2c1nnn2Cc1ccccc1`, with 40.1 µM. With `Cc1occc1-c1nnc(SCC(=O)N2CCN(c3ccccc3)CC2)n1C`, the AC50 was > 42 µM (inactive). Regarding `CC(=O)c1cc(C)ccc1OC(=O)c1ccco1`, the AC50 was > 42 µM (inactive). The same measure for `Cc1cc2c(C)ccc(C)c2nc1SCC(=O)c1cccs1`: > 42 µM (inactive); for `CSc1ccccc1NC(=O)COc1nsnc1N1CCOCC1`: > 42 µM (inactive); for `COc1ccc(N2CCN(C(=O)Cn3nnc(-c4ccc(OC)c(OC)c4)n3)CC2)cc1`: > 42 µM (inactive). The same measure for `NS(=O)(=O)c1cccc(NC(=O)CSc2nnnn2-c2ccccc2)c1`: > 42 µM (inactive); for `O=C(Nc1ccccc1)N1CCN(CCc2ccccc2)CC1`: > 42 µM (inactive); for `CCC(Cc1ccccc1)NC(=O)C1CCN(c2nn3c(=O)cc(C)nc3s2)CC1` (stereo not given): > 42 µM (inactive). Turning to `O=S(=O)(Cc1ccccc1)N1CCN(c2ncccn2)CC1`, the AC50 was > 42 µM (inactive). With `COc1ccc(S(=O)(=O)NCC(=O)N(CC(=O)NCC2CCCO2)c2ccccc2C)cc1` (stereo not given), the AC50 was > 42 µM (inactive).

For `CCOc1cc(C(N)=O)cc(Cl)c1OCc1ccccc1`, the AC50 is > 42 µM (inactive). Regarding `O=C(NC1CCCCC1)N(Cc1cc2cc3c(cc2[nH]c1=O)OCCO3)C1CCCCC1`, the AC50 is > 42 µM (inactive). As for `COC(=O)c1sc(NC(=O)c2ccc(Cn3cc(Cl)cn3)o2)c(C#N)c1C`, the AC50 was > 42 µM (inactive). As to `Cc1cc(CNC(=O)C2CCC(=O)N(Cc3ccccc3F)C2)on1` (stereo not given), the AC50 was > 42 µM (inactive). Regarding `COc1ccc(C2=C(N)c3ccccc3C2=O)cc1`, the AC50 is > 42 µM (inactive).

On to `O=S(=O)(c1cccc(-c2nnco2)c1)N1CCCC1`, for which the AC50 was > 42 µM (inactive). As for `CCOc1ccc(NC(=O)C2CC(=O)N3CCCN=C3S2)cc1` (stereo not given), the AC50 is > 42 µM (inactive). With `CC1CCN(C(=O)Cn2cnc3c2c(=O)n(C)c(=O)n3C)c2ccccc2S1` (stereo not given), the AC50 was 7.66 µM. With `CN(C)S(=O)(=O)c1cc(NC(=O)CSc2nn(-c3ccc(Cl)cc3)c(=S)s2)ccc1Cl`, the AC50 was 31.1 µM. Take `CC1(C)CC(=O)C=C(OC(=O)c2ccc(Cl)cc2)C1`: the AC50 is > 42 µM (inactive).

Consider `O=C(c1cc(F)ccc1F)C1CCCN(C(=O)c2ccc3nccnc3c2)C1` (stereo not given), for which the AC50 was > 42 µM (inactive). For the compound `Cc1ccc(S(=O)(=O)N2CCN(C(=O)CSc3nc(N)cc(=O)[nH]3)CC2)c(C)c1`, the AC50 is > 42 µM (inactive). For `Cc1nnc(NC(=O)c2cccc(S(=O)(=O)N3CCCC3)c2)s1`, the AC50 was > 42 µM (inactive).

In the case of `Cn1c(NCc2ccco2)nc2c1c(=O)n(Cc1ccc(Cl)cc1)c(=O)n2C`, the AC50 was > 42 µM (inactive). Turning to `COCC(=O)Nc1c(C(=O)Nc2ccc3c(c2)OCO3)oc2ccccc12`, the AC50 is > 42 µM (inactive).

Take `CCn1c(=O)n(CC)c2cc(NC(=O)c3ccccc3Cl)ccc21`: the AC50 is > 42 µM (inactive). `N#C/C(=C/c1ccc(N2CCCCC2)o1)C(=O)Nc1ccc(Cl)cc1`: the AC50 was > 42 µM (inactive). `O=C(c1ccccc1F)N1CCCc2ccccc21`: the AC50 was > 42 µM (inactive). Turning to `COc1ccccc1CNC(=O)C(C)Sc1ccc(C)cc1` (stereo not given), the AC50 was > 42 µM (inactive). As for `O=S(=O)(Nn1c(O)c(C=C2N=c3ccccc3=N2)sc1=S)c1ccccc1`, the AC50 is > 42 µM (inactive).

Consider `Cc1c(Cl)cccc1NC(=O)Cn1c(CCC(=O)O)ccc1-c1ccccc1`, for which the AC50 was > 42 µM (inactive).

Take `COC(=O)CN(C(=S)Nc1ccc(F)cc1)C1CC(=O)N(c2ccccc2)C1=O` (stereo not given): the AC50 is > 42 µM (inactive).

Usually AC50 stands for the concentration giving half of the maximal activity seen.
